Results taken from ChEMBL document CHEMBL4052622, “Geldanamycin-inspired compounds induce direct trans-differentiation of human mesenchymal stem cells to neurons” (Eur J Med Chem, 2017).
Calls of active or inactive are those of the source. The calls are words filed in the database; no cut-off is given here.

What was measured:
Assay type in all cases: functional, cell-based
[1] = system: MSC; assay: Induction of differentiation of human umbilical cord tissue-derived MSC to neurons assessed as upregulation of nestin levels at 10 uM after 11 days by End PCR analysis
[2] = system: MSC; assay: Induction of differentiation of human umbilical cord tissue-derived MSC to neurons assessed as upregulation of agrin levels at 10 uM after 11 days by End PCR analysis
[3] = system: MSC; assay: Induction of differentiation of human umbilical cord tissue-derived MSC to neurons assessed as upregulation of RTN4 levels at 10 uM after 11 days by End PCR analysis
[4] = system: MSC; assay: Induction of differentiation of human umbilical cord tissue-derived MSC to neurons assessed as phenotypic changes in cell at 10 uM after 11 days by End PCR analysis

SMILES | Activity [1] | Activity [2] | Activity [3] | Activity [4]
CO[C@@H]([C@H](C[C@H](C)CN=[N+]=[N-])OC)[C@@H](C)C(=O)N1C(=O)OC[C@H]1Cc1ccccc1 | inactive | Active | Active | –
CO[C@@H](C[C@H](C)CO)[C@H](O)[C@@H](C)C(=O)N1C(=O)OC[C@H]1Cc1ccccc1 | Active | Active | Active | Active
CO[C@H]1[C@@H](OC)C[C@H](C)Cn2cc(nn2)COC(=O)/C(C)=C/CC[C@H](OC)[C@H](CO)OC(=O)[C@@H]1C | Active | Active | Active | Active
CO[C@H]1[C@@H](OC)C[C@H](C)Cn2cc(nn2)COC(=O)/C(C)=C/C=C\[C@H](OC)[C@H](CO[Si](C)(C)C(C)(C)C)OC(=O)[C@@H]1C | Active | Active | Active | –
CO[C@H]1[C@@H](OC)C[C@H](C)Cn2cc(nn2)COC(=O)/C(C)=C/CC[C@H](OC)[C@H](CO[Si](C)(C)C(C)(C)C)OC(=O)[C@@H]1C | Active | Active | Active | –
